From patent US6949679B1, “Polyamine transport inhibitors” (Universite Laval, priority 1998, dated 2005)
Blank lines part the entries; values can stand above or below the compound they belong to.

Experiments:
[1] = tested on: polyamine transporter; test: Inhibition of [3H]spermidine uptake in CHO-K1 cells; type: cell-based, Chinese hamster; conditions: [3H]spermidine as substrate
Description: To 1 ml of an extemporaneously prepared, DTT-free solution of MESC (20 mM in […]) were added 50 μl of 50 mM Tris-HCl (pH 7.0) and 105 μl of a 40 mM solution of either iodoacetamide, LY iodoacetamide or ASIB in a light-protected microcentrifuge tube, and the mixture was incubated for 2 hours at 37° C. […] Excess iodoacetamide was then inactivated by adding DTT to a final concentration of 40 mM and incubating the solution for 2 hours at 37° C. […] The effect of the respective DTT-inactivated iodoacetamide on spermidine transport was determined in parallel by incubating cells with the same reaction mixture from which MESC was omitted. […] J. Biol. […] Cells were then lysed with 200-μl aliquot of 1 N NaOH and incubated for 30 minutes at 60° C. After neutralization with 200 μl of 1 N HCl, radioactivity was determined from a 250-μl of the cell lysate by scintillation counting. Uptake activity was expressed per amount of total cellular protein as determined by the method of Bradford (Bradford, M. M. 1976. Anal. Biochem. 72: 248-254). […] K[…] Ki and Vmax values were then estimated by Lineweaver-Burke analysis. For competitive inhibitors, Ki values were also estimated by measuring uptake activity in the presence of logarithmically increasing concentrations of antagonist, and using the Cheng-Prusoff equation (Cheng, Y.-C. and Prusoff, W. H. 1973. Biochem. Pharmacol. 22: 3099-3108) by iterative curve fitting for a sigmoidal curve. For mixed competitive/noncompetitive inhibition, two methods were used to calculate kinetic constants. […] C. 1976. Enzymes, 3rd Ed., Academic Press, San Diego, Calif.). […] C. 1976. Enzymes, 3rd Ed., Academic Press, San Diego, Calif.). Intracellular Accumulation

[2] = tested on: polyamine transporter; test: Inhibition of [3H]putrescine uptake in ZR-75-1 cells; type: cell-based, human; conditions: for Mode of inhibition of [3H]putrescine uptake: Lineweaver-Burke, DESC up to 100 μM, MESC up to 200 μM; for Ki: ZR-75-1 cells
Description: (§1) The rate of putrescine and spermidine transport was determined in ZR-75-1 cells incubated in serum-free RPMI 1640 medium as described (Lessard, M., Zhao, C., Singh, S. M. and Poulin, R. 1995. J. Biol. Chem. 270: 1685-1694), using [^3H]putrescine (30 Ci/mol) and [^3H]spermidine (20 Ci/mol), respectively as substrates for a 20 minute-assay period. Spermine uptake was similarly determined, using 1 μM [^14C]spermine (32 Ci/mol) as substrate. Uptake activity was expressed per amount of DNA as fluorometrically determined using 3,4-diaminobenzoic acid (Simard, J., Dauvois, S., Haagensen, D. E., Lėvesque, C., Mėrand, Y. and Labrie, F. 1990. Endocrinology, 126: 3223-3231). For the determination of spermidine uptake activity in CHO-K1 cells, 80% confluent cell monolayers were rinsed twice with PBS and incubated for 20 minutes at 37° C. in 400 μl of buffer A (20 mM Tris-HCl, pH 7.4; 0.42 mM CaCl2; 0.41 mM MgSO4; 103 mM NaCl; 5.7 mM KCl; 1.1 mM D-glucose) containing 5 μM [^3H]spermidine (20 Ci/mol). Cell cultures were then washed twice with 1 ml PBS containing 5.7 mM sym-norspermidine. Cells were then lysed with 200-μl aliquot of 1 N NaOH and incubated for 30 minutes at 60° C. After neutralization with 200 μl of 1 N HCl, radioactivity was determined from a 250-μl of the cell lysate by scintillation counting. Uptake activity was expressed per amount of total cellular protein as determined by the method of Bradford (Bradford, M. M. 1976. Anal. Biochem. 72: 248-254). Non-specific binding of radioactive substrate was similarly determined in parallel for both cell lines after a 15 second-incubation with 400 μl of ice-cold uptake solution.
(§2) Kinetic analysis of polyamine transport was performed by determining uptake activity in the presence of a 3 μM [^3H]putrescine or 1 μM [^3H]spermidine plus increasing concentrations of nonradioactive substrate. K[…] Ki and Vmax values were then estimated by Lineweaver-Burke analysis. For competitive inhibitors, Ki values were also estimated by measuring uptake activity in the presence of logarithmically increasing concentrations of antagonist, and using the Cheng-Prusoff equation (Cheng, Y.-C. and Prusoff, W. H. 1973. Biochem. Pharmacol. 22: 3099-3108) by iterative curve fitting for a sigmoidal curve. For mixed competitive/noncompetitive inhibition, two methods were used to calculate kinetic constants. First, the equation [drawing 2] where v, s, and i are the transport velocity, substrate concentration and inhibitor concentration respectively, was used to calculate the inhibition constants for inhibitor/carrier complex formation (Ki) and carrier/inhibitor/substrate complex formation (Ki′) (Dixon, M. and Webb, E. C. 1976. Enzymes, 3rd Ed., Academic Press, San Diego, Calif.). Alternatively, the value of Ki for a mixed competitor/non-competitor was estimated from the intersect of equations v^−1 vs i at two different substrate concentrations (Dixon, M. and Webb, E. C. 1976. Enzymes, 3rd Ed., Academic Press, San Diego, Calif.). Intracellular Accumulation
(§3) In order to evaluate the effectiveness of dimeric triamines as polyamine transport inhibitors, we synthesized N,N′-bis(3-aminopropyl),N,N′-bis(4-aminobutyl)cystamine or BABAC (structure 1, FIG. 25; FIG. 31), and its thiol form N-(3-aminopropyl),N-(4-aminobutyl)cysteamine or AAC (FIG. 31) according to Scheme 4 described above (FIG. 30), using spermidine as a precursor polyamine. The ability of BABAC and AAC to inhibit the intracellular uptake of radio-labeled putrescine and spermidine in the ZR-75-1 human breast cancer cell line was then determined according to standard published procedures (Lessard, et al. and Poulin, et al.) Briefly, ZR-75-1 cells were grown for four days in twenty-four well plates in RPMI 1640 medium supplemented with 10% fetal bovine serum.

[3] = tested on: ZR-75-1 cells; test: Intracellular accumulation of inhibitor and polyamine contents (HPLC) in ZR-75-1 cells; type: cell-based, human
[4] = tested on: polyamine transporter; test: Inhibition of [3H]spermidine uptake in ZR-75-1 cells; type: cell-based, human
Description: as §1
as §2, with “Alternatively, the value of Ki for a mixed competitor/non-competitor was estimated from the intersect of equations v^−1 vs i at two different substrate concentrations (Dixon, M. and Webb, E. C. 1976. Enzymes, 3rd Ed., Academic Press, San Diego, Calif.). Intracellular Accumulation” left out
as §3

[5] = this work, DEASC: Ki of mixed competitive/non-competitive model, read-out: Ki, putrescine transport
[6] = 200 μM compound + 200 μM CHX, 1 h
[7] = 200 μM compound + 200 μM CHX, 6 h

Compound: NCCCNCCCC(NCCCN)C(=O)NCCS (stereo not shown) [MESC, N-(2-mercaptoethyl)spermine-5-carboxamide]
Ki [1]: 33.6 ± 7.2 µM
Mode of inhibition of [3H]putrescine uptake [2]: pure competitive inhibitors
Ki [2, 5]: 22 ± 3 µM
Spermine intracellular content ([3]; 50 μM compound, 1 h): 7.77 ± 0.06 nmol/mg protein
Spermine intracellular content ([3]; 50 μM compound, 6 h): 8.13 ± 0.17 nmol/mg protein
Spermine intracellular content ([3]; 200 μM compound, 1 h): 8.93 ± 0.53 nmol/mg protein
Spermine intracellular content ([3]; 200 μM compound, 6 h): 8.32 ± 0.43 nmol/mg protein

DESC accumulation as % of accumulation measured for spermine under identical conditions ([3]; 200 μM DESC, 6-hour incubation): about 1.5%
DESC intracellular content [3, 6]: <0.01 nmol/mg protein
DESC intracellular content [3, 7]: 0.10 nmol/mg protein
Compound: NCCCNCCCC(NCCCN)C(=O)NCCSSCCNC(=O)C(CCCNCCCN)NCCCN (stereo not shown) [DESC, 2,2′-dithiobis(N-ethyl-spermine-5-carboxamide)]
Ki [1]: 0.92 ± 0.15 µM
Mode of inhibition of [3H]putrescine uptake [2]: pure competitive inhibitors
Ki ([2]; FIG. 32, 20 μM and 3 μM substrate, respectively, read-out: Apparent Ki, putrescine uptake): 0.54 µM
Ki [2, 5]: 1.6 ± 0.5 µM
Ki ([4]; FIG. 32, 20 μM and 3 μM substrate, respectively, read-out: Apparent Ki, spermidine uptake): 5.6 µM
Ki ([4]; this work, read-out: Ki, spermidine transport): 2.7 ± 1.1 µM
Spermine intracellular content ([3]; 50 μM compound, 1 h): 8.27 ± 0.81 nmol/mg protein
Spermidine intracellular content [3, 6]: 0.75 ± 0.04 nmol/mg protein
Spermine intracellular content [3, 6]: 9.57 ± 0.31 nmol/mg protein
Spermine intracellular content [3, 7]: 9.55 ± 0.13 nmol/mg protein
Spermine intracellular content ([3]; 200 μM compound, 1 h): 8.77 ± 0.79 nmol/mg protein
Spermine intracellular content ([3]; 200 μM compound, 6 h): 8.66 ± 0.26 nmol/mg protein
